Reference: patent US20130085178A1, “COMPOSITION FOR TREATING BONE DISEASE COMPRISING A GLYCEOLLIN AS AN ACTIVE INGREDIENT” (KYUNGPOOK NATIONAL UNIVERSITY INDUSTRY-ACADEMIC COOPERATION …, priority 2010, published 2013)
Entries after “also recorded” stand apart in the source; their conditions may differ. Peptide text beside a SMILES is read from it. * marks the point of attachment. Cbz = O=C(OCc1ccccc1)*

Legend:
[1] = tested on: Runx2; assay: Runx2 protein and mRNA level in MC3T3E1 cells during induction of differentiation; format: cell-based, mouse
Experimental: (§1) Osteoblasts isolated from calvarial of 18.5 days old mice and mouse MC3T3E1 cells were cultured in alpha-MEM containing 10% FBS at 37° C. in a humidified atmosphere containing 5% CO2. To induce differentiation of osteoblasts and MC3T3E1 cells, 50 μg/ml of ascorbic acid and 10 mM of beta-glycerophosphate are added to alpha-MEM containing 10% FBS. RAW264.7 (murine monocyte/macrophage) cells were cultured in D-MEM containing 10% FBS, and RANKL is added to alpha-MEM containing 10% FBS to induce differentiation to osteoclasts.
(§2) MC3T3E1 cells were treated with 0, 5, 10, 25 and 50 μM of glyceollin during induction of cellular differentiation. RAW264.7 cells were treated with 0, 5, 10 and 25 μM of glyceollin during induction of cellular differentiation. Osteoblasts isolated from mouse calvarial were treated with 0, 10 and 20 μM of glyceollin during induction of cellular differentiation. Osteoporosis mice induced by high dose vitamin D were daily injected 0, 0.5 and 5 μg/kg of glyceollin for 9 days.
(§3) To investigate the function of glyceollin on osteoblasts proliferation, morphology and number of glyceollin-treated MC3T3E1 cells were analyzed and MTT analysis was carried out.
To investigate whether the decrease of Runx2 protein is due to decrease of Runx2 mRNA, mRNA expression patterns were measured after treatment of glyceollin.
The Runx2 protein level decreased by glyceollin was recovered by MG132 (FIG. 1f).

[2] = tested on: osteoporosis mouse model; assay: Osteoporosis mouse model induced by high dose vitamin D (micro CT, Trichrome staining, TRAP staining of calvarial); format: in vivo, mice (C57BL/6)
Experimental: Normal mice (C57BL/6) were subcutaneously injected with high dose vitamin D (60×10^4 IU/kg) to obtain osteoporosis mouse model, and monitored during 10 days after first injection. High dose vitamin D activates osteoclasts to reduce mouse bone mass.
as §2
To elucidate in vivo inhibitory effect of glyceollin on differentiation of osteoclasts which had been confirmed in vitro, osteoporosis mouse model injected with high dose vitamin D one time a day for 3 days. The mice treated with glyceollins one time a day for 9 days were sacrificed at 10 days after first injection and calvarial was observed by micro CT analysis, Trichrome staining and TRAP staining.

[3] = tested on: osteoblasts isolated from mouse calvarial; assay: Proteins and mRNAs related to osteoblast differentiation (Runx2, osteocalcin, Rankl, Opg) in osteoblasts isolated from mouse calvarial; format: cell-based
Experimental: as §1, §2
Proteins and mRNAs related to osteoblast differentiation were measured in osteoblasts isolated from mouse calvarial which were treated with 0, 10 and 20 μM of glyceollin.
Consequently, Rankl/Opg ratio was decreased by glyceollins in osteoblast differentiation (FIG. 2c).

[4] = tested on: osteoblasts isolated from mouse calvarial; assay: Osteoblast differentiation by ALP staining, Alizarin Red staining and calcium contents; format: cell-based; settings: 0, 10 and 20 μM glyceollin
Experimental: as §1, §2
Osteoblasts isolated from mouse calvarial were treated with 0, 10 and 20 μM of glyceollin during induction of cellular differentiation, and differentiation was analyzed by ALP staining (7 days after differentiation) and Alizarin Red staining (21 days after differentiation).
In addition, calcium contents of osteoblasts (21 days after differentiation) were measured and reduction of calcium was observed as glyceollin concentration increased (FIG. 3c).

[5] = tested on: MC3T3E1 cells; assay: Osteoblast proliferation: morphology, cell number and MTT analysis of glyceollin-treated MC3T3E1 cells; format: cell-based, mouse; settings: vs untreated cells
Experimental: as §1, §3

[6] = tested on: RAW264.7 cells; assay: Differentiation of RAW264.7 cells to osteoclasts by TRAP staining; format: cell-based, murine; settings: RANKL-induced, 0, 5, 10 and 25 μM glyceollin, TRAP stained 4 days after
Experimental: as §1, §2
RAW264.7 cells were treated with 0, 5, 10 and 25 μM of glyceollin during induction of differentiation, and then TRAP stained 4 days after to analyze osteoclasts.

[7] = calvarial micro CT, 0, 0.5 and 5 μg/kg glyceollin daily for 9 days, sacrificed at 10 days
[8] = calvarial, osteoporosis mouse model by high dose vitamin D
[9] = mouse calvarial osteoblasts, 0, 10 and 20 μM glyceollin
[10] = mouse calvarial osteoblasts, real-time PCR, 0, 10 and 20 μM glyceollin, listed as glyceollins
[11] = 10 and 20 μM glyceollin during cellular proliferation

CC(C)C[C@@H](C=O)NC(=O)[C@H](CC(C)C)NC(=O)[C@H](CC(C)C)NC(=O)OCc1ccccc1 [MG132, reference compound] (Cbz-Leu-Leu-Leu-aldehyde)
Runx2 protein level decreased by glyceollin, after further treatment with proteasome inhibitor ([1]; MC3T3E1 cells, 20 μM glyceollin plus MG132 vs 20 μM glyceollin only): recovered

glyceollin
osteoporosis of mouse calvarial mediated by high dose vitamin D (BMC, BMD and TMD analysis after CT) ([2]; administration of glyceollin): recovered | bone mineral contents (BMC) [2, 7]: increased by glyceollin in dose-dependent manner | bone mineral density (BMD) [2, 7]: increased by glyceollin in dose-dependent manner | tissue mineral contents (TMC) [2, 7]: increased by glyceollin in dose-dependent manner | collagen generation (Trichrome staining) [2, 8]: increased | number of osteoclasts (TRAP staining) [2, 8]: decrease | Runx2 protein level ([1]; MC3T3E1 cells, 0, 5, 10, 25 and 50 μM glyceollin during induction of differentiation): decreased as the concentration of glyceollin increased | Runx2 mRNA level ([1]; MC3T3E1 cells, 10 and 20 μM glyceollin during induction of differentiation): not changed; also recorded: not affected | Runx2 mRNA level [3, 9]: not changed; also recorded: not affected | osteocalcin mRNA level (differentiation marker of osteoblasts) [3, 9]: decreased according to the concentration of glyceollin; also recorded: Dose-dependent reduction | Runx2 protein level ([3]; mouse calvarial osteoblasts, 0, 10 and 20 μM glyceollin, D21): decreased by glyceollin in dose-dependent manner | Rankl/Opg ratio ([3]; mouse calvarial osteoblasts, osteoblast differentiation): decreased | Rankl mRNA level ([3]; mouse calvarial osteoblasts, real-time PCR, 0, 10 and 20 μM glyceollin): decreased according to the concentration of glyceollin | Opg mRNA level [3, 10]: not affected or slightly increased | Rankl mRNA level [3, 10]: down-regulated | differentiation of osteoblast by ALP staining ([4]; 7 days after differentiation): inhibited by glyceollin in dose-dependent manner | calcium contents of osteoblasts ([4]; 21 days after differentiation): decreased as the concentration of glyceollin increased; also recorded: reduction | differentiation of osteoblast by Alizarin Red staining ([4]; 21 days after differentiation): inhibited according to the concentration of glyceollin; also recorded: inhibited by glyceollin in dose-dependent manner | morphology of MC3T3E1 cells ([5]; 20 μM glyceollin during cellular proliferation): similar; also recorded: no significant difference | MTT assay for MC3T3-E1 cells [5, 11]: similar; also recorded: no significant difference | number of MC3T3E1 cells [5, 11]: similar; also recorded: no significant difference | differentiation to osteoclasts (TRAP stained osteoclasts) [6]: inhibited as the concentration of glyceollin increased; also recorded: reduced by glyceollin in dose-dependent manner
